Measured values: patent US10206937B2, “Boronic acid derivatives and therapeutic uses thereof” (Qpex Biopharma, Inc., priority 2014, dated 2019)

Experiments:
NDM-1 [1] = target: T1, NDM-1 (Klebsiella pneumoniae, UniProt C7C422); experiment: biochemical
NDM-1 [2] = target: T1, NDM-1; experiment: Inhibition of purified class B carbapenemase NDM-1 (Ki, imipenem substrate); type: biochemical; details: NDM-1, substrate imipenem; read-out: Ki NDM-1, Imipenem
VIM-1 = target: T2, VIM-1 (Pseudomonas aeruginosa, UniProt A0A0F7KYQ8); experiment: biochemical; details: cleavage of nitrocefin (200 uM) by VIM-1 supernatant
T2 construct: made in house; host or cells: ECM6711 strain carrying pUCP24-VIM-1 plasmid; culture supernatant used unpurified

[3] = target: T3, purified class A, C and D enzymes (UniProt Q9F663); type: biochemical; details: read-out: Ki (KPC-2, NCF); purified KPC-2; nitrocefin reporter substrate
T3 construct: rows headed: Ki (KPC-2, NCF); other: purified KPC-2; nitrocefin reporter substrate

[4] = target: T4, purified class A, C and D enzymes (UniProt P0AD64, L31Q/G234S/E235K, species not given); type: biochemical; details: read-out: Ki (SHV-12, NCF); purified SHV-12; nitrocefin reporter substrate
T4 construct: Ki (SHV-12, NCF); other: purified SHV-12; nitrocefin reporter substrate
T4 sequence (P0AD64 1-286 L31Q/G234S/E235K): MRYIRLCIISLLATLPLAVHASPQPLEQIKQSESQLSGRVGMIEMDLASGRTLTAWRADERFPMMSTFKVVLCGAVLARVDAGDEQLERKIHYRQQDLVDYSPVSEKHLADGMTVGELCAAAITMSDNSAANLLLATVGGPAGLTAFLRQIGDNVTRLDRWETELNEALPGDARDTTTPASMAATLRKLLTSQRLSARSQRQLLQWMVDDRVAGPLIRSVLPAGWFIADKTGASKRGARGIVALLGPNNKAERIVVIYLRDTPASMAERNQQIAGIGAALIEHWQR

[5] = target: T5, purified class A, C and D enzymes (UniProt Q6XEC0); type: biochemical; details: read-out: Ki (OXA-48, NCF); purified OXA-48; nitrocefin reporter substrate
T5 construct: rows headed: Ki (OXA-48, NCF); other: purified OXA-48; nitrocefin reporter substrate

[6] = target: purified class A, C and D enzymes (Enterobacter cloacae, UniProt P05364); type: biochemical; details: purified P99/AmpC of ECL; nitrocefin reporter substrate
[7] = target: purified class A, C and D enzymes (Escherichia coli, UniProt Q9L5C7); type: biochemical; details: purified CTX-M-14; nitrocefin reporter substrate
[8] = cleavage of imipenem (100 uM) by NDM-1, read-out: Ki, Imipenem

Chain of purified class A, C and D enzymes (Enterobacter cloacae, UniProt P05364) (P05364 21-381): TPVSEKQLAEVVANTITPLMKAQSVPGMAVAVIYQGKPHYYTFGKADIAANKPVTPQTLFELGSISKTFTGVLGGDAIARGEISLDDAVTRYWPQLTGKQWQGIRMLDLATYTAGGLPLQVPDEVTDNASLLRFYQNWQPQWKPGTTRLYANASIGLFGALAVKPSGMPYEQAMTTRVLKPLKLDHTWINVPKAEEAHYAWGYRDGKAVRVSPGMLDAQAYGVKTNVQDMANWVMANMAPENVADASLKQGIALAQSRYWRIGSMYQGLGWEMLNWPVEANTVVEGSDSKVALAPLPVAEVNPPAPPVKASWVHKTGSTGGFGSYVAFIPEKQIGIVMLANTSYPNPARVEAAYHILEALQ
T1 sequence (C7C422 29-270, looked up, species assumed): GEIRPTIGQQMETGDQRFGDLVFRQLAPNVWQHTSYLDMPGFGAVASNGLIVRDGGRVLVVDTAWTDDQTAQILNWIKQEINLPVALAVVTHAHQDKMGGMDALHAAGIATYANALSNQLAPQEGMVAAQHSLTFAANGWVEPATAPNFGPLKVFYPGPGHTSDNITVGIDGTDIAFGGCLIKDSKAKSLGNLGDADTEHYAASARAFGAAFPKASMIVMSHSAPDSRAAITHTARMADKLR
Chain of purified class A, C and D enzymes (Escherichia coli, UniProt Q9L5C7) (Q9L5C7 entry or part of it): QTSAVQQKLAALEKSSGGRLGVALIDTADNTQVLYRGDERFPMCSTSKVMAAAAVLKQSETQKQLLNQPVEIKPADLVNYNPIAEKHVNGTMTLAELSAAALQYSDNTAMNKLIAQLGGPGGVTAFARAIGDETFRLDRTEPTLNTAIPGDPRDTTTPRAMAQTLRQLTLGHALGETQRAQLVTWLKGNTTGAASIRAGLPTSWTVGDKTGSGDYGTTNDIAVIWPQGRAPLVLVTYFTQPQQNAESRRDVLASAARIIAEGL

Cn1nnnc1S[C@H]1Cc2cccc(C(=O)O)c2OB1O [Compound 5, (R)-2-hydroxy-3-(1-methyl-1H-tetrazol-5-ylthio)-3,4-dihydro-2H-benzo[e][1,2]oxaborinine-8-carboxylic acid]
Ki (NDM-1 [1]; [8]): 10 to 100 nM
Ki (NDM-1 [2]): 10 to 100 nM
IC50 (VIM-1): ≥ 1000 nM

O=C(O)c1cccc2c1OB(O)[C@@H](Sc1ccccc1)C2 [Compound 6, (R)-2-hydroxy-3-(phenylthio)-3,4-dihydro-2H-benzo[e][1,2]oxaborinine-8-carboxylic acid]
Ki (NDM-1 [1]; [8]): < 10 nM
Ki (NDM-1 [2]): < 10 nM
IC50 (VIM-1): < 1000 nM

O=C(O)c1cccc2c1OB(O)[C@@H](Sc1cccnc1)C2 [Compound 8, (R)-2-hydroxy-3-(pyridin-3-ylthio)-3,4-dihydro-2H-benzo[e][1,2]oxaborinine-8-carboxylic acid]
Ki (NDM-1 [1]; [8]): > 100 nM
Ki (NDM-1 [2]): > 100 nM
IC50 (VIM-1): < 1000 nM

CC(=N)S[C@H]1Cc2cccc(C(=O)O)c2OB1O [Compound 10, (R)-2-hydroxy-3-(1-iminoethylthio)-3,4-dihydro-2H-benzo[e][1,2]oxaborinine-8-carboxylic acid]
Ki (NDM-1 [1]; [8]): 10 to 100 nM
Ki [3]: 100 to 1000 nM
Ki (NDM-1 [2]): 10 to 100 nM
IC50 (VIM-1): ≥ 1000 nM

O=C(O)c1cccc2c1OB(O)[C@@H](Sc1c[nH]nn1)C2 [Compound 12, (R)-3-(1H-1,2,3-triazol-4-ylthio)-2-hydroxy-3,4-dihydro-2H-benzo[e][1,2]oxaborinine-8-carboxylic acid]
Ki (NDM-1 [1]; [8]): 10 to 100 nM
Ki [3]: 100 to 1000 nM
Ki (NDM-1 [2]): 10 to 100 nM
IC50 (VIM-1): < 1000 nM

O=C(O)c1cccc2c1OB(O)[C@@H](OCc1ccccc1)C2 [Compound 13, (R)-3-(benzyloxy)-2-hydroxy-3,4-dihydro-2H-benzo[e][1,2]oxaborinine-8-carboxylic acid]
Ki (NDM-1 [1]; [8]): 10 to 100 nM
Ki (NDM-1 [2]): 10 to 100 nM
IC50 (VIM-1): < 1000 nM

CO[C@H]1Cc2cccc(C(=O)O)c2OB1O [Compound 17, (R)-2-hydroxy-3-methoxy-3,4-dihydro-2H-benzo[e][1,2]oxaborinine-8-carboxylic acid]
Ki (NDM-1 [1]; cleavage of biapenem (100 uM) by NDM-1, read-out: Ki, Biapenem): 10 to 100 nM
Ki (NDM-1 [1]; [8]): 10 to 100 nM
Ki (NDM-1 [1]; cleavage of meropenem (100 uM) by NDM-1, read-out: Ki, Meropenem): 10 to 100 nM
Ki [4]: < 100 nM
Ki [5]: < 100 nM
Ki [3]: < 100 nM
Ki (NDM-1 [2]): 10 to 100 nM
IC50 (VIM-1): < 1000 nM

CO[C@H]1Cc2ccc(F)c(C(=O)O)c2OB1O [Compound 19, (R)-7-fluoro-2-hydroxy-3-methoxy-3,4-dihydro-2H-benzo[e][1,2]oxaborinine-8-carboxylic acid]
Ki (NDM-1 [1]; [8]): < 10 nM
Ki [4]: < 100 nM
Ki [5]: < 100 nM
Ki [3]: < 100 nM
IC50 (VIM-1): < 1000 nM

Nn1cnnc1S[C@H]1Cc2ccc(F)c(C(=O)O)c2OB1O [Compound 20, (R)-3-(4-amino-4H-1,2,4-triazol-3-ylthio)-7-fluoro-2-hydroxy-3,4-dihydro-2H-benzo[e][1,2]oxaborinine-8-carboxylic acid]
Ki (NDM-1 [1]; [8]): < 10 nM
Ki [4]: < 100 nM
Ki [5]: 100 to 1000 nM
Ki [3]: 100 to 1000 nM
Ki (NDM-1 [2]): < 10 nM
IC50 (VIM-1): ≥ 1000 nM

Cn1cnnc1S[C@H]1Cc2ccc(F)c(C(=O)O)c2OB1O [Compound 24, (R)-7-fluoro-2-hydroxy-3-(4-methyl-4H-1,2,4-triazol-3-ylthio)-3,4-dihydro-2H-benzo[e][1,2]oxaborinine-8-carboxylic acid]
Ki (NDM-1 [1]; [8]): 10 to 100 nM
Ki [4]: < 100 nM
Ki [5]: < 100 nM
Ki [3]: 100 to 1000 nM
Ki (NDM-1 [2]): 10 to 100 nM
IC50 (VIM-1): ≥ 1000 nM

CSc1ccc2c(c1C(=O)O)OB(O)[C@@H](Sc1nncn1N)C2 [Compound 25, (R)-3-(4-amino-4H-1,2,4-triazol-3-ylthio)-2-hydroxy-7-(methylthio)-3,4-dihydro-2H-benzo[e][1,2]oxaborinine-8-carboxylic acid]
Ki (NDM-1 [1]; [8]): < 10 nM
Ki [4]: < 100 nM
Ki [5]: < 100 nM
Ki [3]: 100 to 1000 nM
Ki (NDM-1 [2]): < 10 nM
IC50 (VIM-1): < 1000 nM

COc1ccc2c(c1C(=O)O)OB(O)[C@@H](Sc1nncn1N)C2 [Compound 26, (R)-3-(4-amino-4H-1,2,4-triazol-3-ylthio)-2-hydroxy-7-methoxy-3,4-dihydro-2H-benzo[e][1,2]oxaborinine-8-carboxylic acid]
Ki (NDM-1 [1]; [8]): < 10 nM
Ki [4]: < 100 nM
Ki (P99/AmpC of ECL, NCF) [6]: Y (0.1 μM to 1 μM)
Ki [5]: < 100 nM
Ki [3]: 100 to 1000 nM
Ki (CTX-M-14, NCF) [7]: X (Less than 0.1 μM)
Ki (NDM-1 [2]): < 10 nM
IC50 (VIM-1): < 1000 nM

COc1ccc2c(c1C(=O)O)OB(O)[C@@H](Sc1nncn1C)C2 [Compound 28, (R)-2-hydroxy-7-methoxy-3-(4-methyl-4H-1,2,4-triazol-3-ylthio)-3,4-dihydro-2H-benzo[e][1,2]oxaborinine-8-carboxylic acid]
Ki (NDM-1 [1]; [8]): < 10 nM
Ki [4]: < 100 nM
Ki (P99/AmpC of ECL, NCF) [6]: Y (0.1 μM to 1 μM)
Ki [5]: < 100 nM
Ki [3]: 100 to 1000 nM
Ki (CTX-M-14, NCF) [7]: X (Less than 0.1 μM)
Ki (NDM-1 [2]): < 10 nM
IC50 (VIM-1): < 1000 nM

COc1ccc2c(c1C(=O)O)OB(O)[C@@H](SC1CN(S(N)(=O)=O)C1)C2 [Compound 76, (3R)-2-hydroxy-7-methoxy-3-(1-sulfamoylazetidin-3-yl)sulfanyl-3,4-dihydro-1,2-benzoxaborinine-8-carboxylic acid]
Ki (NDM-1 [1]; [8]): > 100 nM
Ki (P99/AmpC of ECL, NCF) [6]: Y (0.1 μM to 1 μM)
Ki [5]: < 100 nM
Ki [3]: 100 to 1000 nM
Ki (CTX-M-14, NCF) [7]: X (Less than 0.1 μM)
Ki (NDM-1 [2]): > 100 nM
IC50 (VIM-1): ≥ 1000 nM

O=C(O)c1c(OCC2CC2)ccc2c1OB(O)[C@@H](Sc1nncs1)C2 [Compound 92, (3R)-7-(cyclopropylmethoxy)-2-hydroxy-3-(1,3,4-thiadiazol-2-ylsulfanyl)-3,4-dihydro-1,2-benzoxaborinine-8-carboxylic acid]
Ki (NDM-1 [1]; [8]): 10 to 100 nM
Ki (P99/AmpC of ECL, NCF) [6]: Y (0.1 μM to 1 μM)
Ki [5]: < 100 nM
Ki [3]: 100 to 1000 nM
Ki (CTX-M-14, NCF) [7]: X (Less than 0.1 μM)
Ki (NDM-1 [2]): 10 to 100 nM
IC50 (VIM-1): < 1000 nM

O=C(O)c1c(OCc2nncs2)ccc2c1OB(O)[C@@H](Sc1nncs1)C2 [Compound 93]
Ki (NDM-1 [1]; [8]): > 100 nM
Ki (P99/AmpC of ECL, NCF) [6]: Y (0.1 μM to 1 μM)
Ki [5]: < 100 nM
Ki [3]: 100 to 1000 nM
Ki (CTX-M-14, NCF) [7]: X (Less than 0.1 μM)
Ki (NDM-1 [2]): > 100 nM
IC50 (VIM-1): < 1000 nM

O=C(O)c1c(OC(F)F)ccc2c1OB(O)[C@@H](Sc1nncs1)C2 [Compound 94, (3R)-7-(difluoromethoxy)-2-hydroxy-3-(1,3,4-thiadiazol-2-ylsulfanyl)-3,4-dihydro-1,2-benzoxaborinine-8-carboxylic acid]
Ki (NDM-1 [1]; [8]): > 100 nM
Ki (P99/AmpC of ECL, NCF) [6]: Z (Greater than 1 μM)
Ki [5]: < 100 nM
Ki [3]: 100 to 1000 nM
Ki (CTX-M-14, NCF) [7]: X (Less than 0.1 μM)
Ki (NDM-1 [2]): > 100 nM
IC50 (VIM-1): < 1000 nM

CSCCOc1ccc2c(c1C(=O)O)OB(O)[C@@H](Sc1nncs1)C2 [Compound 95, (3R)-2-hydroxy-7-(2-methylsulfanylethoxy)-3-(1,3,4-thiadiazol-2-ylsulfanyl)-3,4-dihydro-1,2-benzoxaborinine-8-carboxylic acid]
Ki (NDM-1 [1]; [8]): 10 to 100 nM
Ki (P99/AmpC of ECL, NCF) [6]: Y (0.1 μM to 1 μM)
Ki [5]: < 100 nM
Ki [3]: 100 to 1000 nM
Ki (CTX-M-14, NCF) [7]: X (Less than 0.1 μM)
Ki (NDM-1 [2]): 10 to 100 nM
IC50 (VIM-1): < 1000 nM

COc1ccc2c(c1C(=O)O)OB(O)[C@@H](Sc1nnc(NC(=N)N)s1)C2 [Compound 106, (3R)-3-[(5-guanidino-1,3,4-thiadiazol-2-yl)sulfanyl]-2-hydroxy-7-methoxy-3,4-dihydro-1,2-benzoxaborinine-8-carboxylic acid]
Ki (NDM-1 [1]; [8]): > 100 nM
Ki (P99/AmpC of ECL, NCF) [6]: X (Less than 0.1 μM)
Ki [5]: < 100 nM
Ki [3]: 100 to 1000 nM
Ki (CTX-M-14, NCF) [7]: X (Less than 0.1 μM)
Ki (NDM-1 [2]): > 100 nM
IC50 (VIM-1): < 1000 nM

CS(=O)(=O)Nc1ccc2c(c1C(=O)O)OB(O)[C@@H](Sc1nnc(N)s1)C2 [Compound 120, (3R)-3-[(5-amino-1,3,4-thiadiazol-2-yl)sulfanyl]-2-hydroxy-7-(methanesulfonamido)-3,4-dihydro-1,2-benzoxaborinine-8-carboxylic acid]
Ki (NDM-1 [1]; [8]): < 10 nM
Ki (P99/AmpC of ECL, NCF) [6]: X (Less than 0.1 μM)
Ki [5]: < 100 nM
Ki [3]: 100 to 1000 nM
Ki (CTX-M-14, NCF) [7]: X (Less than 0.1 μM)
Ki (NDM-1 [2]): < 10 nM
IC50 (VIM-1): < 1000 nM
